Source: PubChem BioAssay (NCI)
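All cell lines were grown in 96-well plates and treated with compound for 48 hours. GI50 marks 50% less growth. Definition used: TGI = concentration required for complete inhibition of growth.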

Columns and labels:
Assay in all cases: inhibition of tumour cell growth, NCI panel, 48 h
NCI-H460 lung = system: NCI-H460 lung
NCI-H226 lung = system: NCI-H226 lung
A549 NSCLC = system: A549 NSCLC
ACHN renal = system: ACHN renal
NCI-H23 lung = system: NCI-H23 lung
EKVX NSCLC = system: EKVX NSCLC
SW-620 colon = system: SW-620 colon
TK-10 renal = system: TK-10 renal
MCF7 breast = system: MCF7 breast
MDA-MB-435 = system: MDA-MB-435

## N#CC1(N2CCCC2)CCC2(CC1)OCCO2
NCI-H460 lung
  TGI: > 100 µM
NCI-H226 lung
  TGI: > 100 µM
A549 NSCLC
  TGI: > 100 µM
ACHN renal
  TGI: > 100 µM
NCI-H23 lung
  TGI: > 100 µM
EKVX NSCLC
  TGI: > 100 µM
SW-620 colon
  TGI: > 100 µM
TK-10 renal
  TGI: > 100 µM

## CC(=O)OC1=C2CC[C@@H]3C(CC[C@@]4(C)C3CC[C@@H]4OC(C)=O)[C@@]2(C)CC(C#N)C1=O (some centres undefined)
NCI-H460 lung
  TGI: 74.4 µM
NCI-H226 lung
  TGI: > 100 µM
A549 NSCLC
  TGI: > 100 µM
ACHN renal
  TGI: 71 µM
NCI-H23 lung
  TGI: > 100 µM
EKVX NSCLC
  TGI: > 100 µM
SW-620 colon
  TGI: > 100 µM
TK-10 renal
  TGI: > 100 µM

## Brc1ccc(C=NC23CC4CC(CC(C4)C2)C3)cc1
NCI-H460 lung
  TGI: > 100 µM
NCI-H226 lung
  TGI: > 100 µM
A549 NSCLC
  TGI: > 100 µM
ACHN renal
  TGI: > 100 µM
NCI-H23 lung
  TGI: > 100 µM
EKVX NSCLC
  TGI: > 100 µM
SW-620 colon
  TGI: > 100 µM
TK-10 renal
  TGI: > 100 µM

## Cc1c[nH]c(=O)n(Cc2nnc(CCC(=O)c3nc4ccccc4[nH]3)o2)c1=O
NCI-H460 lung
  GI50: 0.387 µM
  TGI: > 43.1 µM
NCI-H226 lung
  GI50: 3.48 µM
  TGI: > 100 µM
A549 NSCLC
  GI50: 0.475 µM
  TGI: > 100 µM
ACHN renal
  GI50: 7.56 µM
  TGI: > 100 µM
NCI-H23 lung
  GI50: 0.432 µM
EKVX NSCLC
  GI50: 1.51 µM
  TGI: > 100 µM
SW-620 colon
  GI50: 0.483 µM
  TGI: > 100 µM
TK-10 renal
  GI50: 3.68 µM
  TGI: > 80.6 µM
MCF7 breast
  GI50: 0.205 µM
  TGI: > 100 µM

## CO/C=C(\Br)c1ccc2c(c1)OCO2
NCI-H226 lung
  TGI: > 100 µM
A549 NSCLC
  TGI: > 100 µM
ACHN renal
  TGI: > 100 µM
NCI-H23 lung
  TGI: > 100 µM
EKVX NSCLC
  TGI: > 100 µM
SW-620 colon
  TGI: > 100 µM
TK-10 renal
  TGI: > 100 µM

## OCCN(CCO)c1nc(N2CCCCC2)c2nc(N(CCO)CCO)nc(N3CCCCC3)c2n1
NCI-H460 lung
  TGI: > 100 µM
NCI-H226 lung
  TGI: > 100 µM
A549 NSCLC
  TGI: > 100 µM
ACHN renal
  TGI: > 100 µM
NCI-H23 lung
  TGI: > 100 µM
EKVX NSCLC
  TGI: > 100 µM
MDA-MB-435
  TGI: > 100 µM
SW-620 colon
  TGI: > 100 µM
TK-10 renal
  TGI: 64.6 µM

## C[N+](C)(C)C1CC([N+](C)(C)C)C2c3ccccc3C21 (centres undefined)
NCI-H460 lung
  TGI: > 100 µM
NCI-H226 lung
  TGI: > 100 µM
A549 NSCLC
  TGI: > 100 µM
ACHN renal
  TGI: > 100 µM
NCI-H23 lung
  TGI: > 100 µM
EKVX NSCLC
  TGI: > 100 µM
SW-620 colon
  TGI: > 100 µM
TK-10 renal
  TGI: > 100 µM

## Cc1nc2ccccc2c(/C=C/c2ccccc2)c1C(=O)/C=C/c1ccc(C(F)(F)F)cc1
NCI-H226 lung
  GI50: 1.73 µM
  TGI: 3.67 µM
A549 NSCLC
  GI50: 2.03 µM
  TGI: 4.84 µM
ACHN renal
  GI50: 1.44 µM
  TGI: 2.75 µM
NCI-H23 lung
  GI50: 1.25 µM
  TGI: 3.11 µM
EKVX NSCLC
  GI50: 1.56 µM
  TGI: 3.11 µM
MDA-MB-435
  GI50: 1.86 µM
  TGI: 3.55 µM
SW-620 colon
  GI50: 1.02 µM
  TGI: 3.49 µM
TK-10 renal
  GI50: 2.35 µM
  TGI: 4.04 µM
MCF7 breast
  GI50: 0.631 µM
  TGI: 2.66 µM

## CCOC(=O)CNC(=O)OCc1ccccc1
NCI-H460 lung
  TGI: > 100 µM
A549 NSCLC
  TGI: > 100 µM
ACHN renal
  TGI: > 100 µM
NCI-H23 lung
  TGI: > 100 µM
SW-620 colon
  TGI: > 100 µM
TK-10 renal
  TGI: > 100 µM

## [Co].[O-]c1cccnc1C=Nc1ccccc1.[OH3+]
NCI-H460 lung
  GI50: > 100 µM
  TGI: > 100 µM
A549 NSCLC
  GI50: > 100 µM
  TGI: > 100 µM
ACHN renal
  GI50: 79.9 µM
  TGI: > 100 µM
NCI-H23 lung
  GI50: > 100 µM
  TGI: > 100 µM
EKVX NSCLC
  GI50: > 100 µM
  TGI: > 100 µM
SW-620 colon
  GI50: > 100 µM
  TGI: > 100 µM
TK-10 renal
  GI50: > 100 µM
  TGI: > 100 µM

## O=S1(=O)c2cc(S(=O)(=O)n3ccnc3)ccc2NC2=NCCCN21
NCI-H226 lung
  TGI: 46.7 µM
A549 NSCLC
  TGI: > 100 µM
ACHN renal
  TGI: > 100 µM
NCI-H23 lung
  TGI: > 100 µM
EKVX NSCLC
  TGI: > 100 µM
SW-620 colon
  TGI: 73.8 µM
TK-10 renal
  TGI: > 100 µM

## C=CCOc1ccc(N)c([N+](=O)[O-])c1
NCI-H226 lung
  TGI: > 100 µM
A549 NSCLC
  TGI: > 100 µM
ACHN renal
  TGI: > 100 µM
NCI-H23 lung
  TGI: > 100 µM
EKVX NSCLC
  TGI: > 100 µM
MDA-MB-435
  TGI: > 100 µM
SW-620 colon
  TGI: > 100 µM
TK-10 renal
  TGI: > 100 µM
MCF7 breast
  TGI: > 100 µM

## Cc1ccc(/C=N/NS(=O)(=O)c2ccccc2)cc1C
NCI-H460 lung
  TGI: > 100 µM
NCI-H226 lung
  TGI: > 100 µM
A549 NSCLC
  TGI: > 100 µM
ACHN renal
  TGI: > 100 µM
NCI-H23 lung
  TGI: > 100 µM
EKVX NSCLC
  TGI: > 100 µM
SW-620 colon
  TGI: > 100 µM
TK-10 renal
  TGI: > 100 µM

## Cc1[nH]c2ccccc2c1C1=NO/C(=N\O)C(c2c(C)[nH]c3ccccc23)C1 (centres undefined)
NCI-H460 lung
  TGI: > 67.6 µM
NCI-H226 lung
  TGI: > 100 µM
A549 NSCLC
  TGI: > 100 µM
ACHN renal
  TGI: > 91.1 µM
NCI-H23 lung
  TGI: > 100 µM
EKVX NSCLC
  TGI: > 100 µM
SW-620 colon
  TGI: > 100 µM
TK-10 renal
  TGI: > 100 µM

## CN(C)CCN(C)C(=O)c1cccc2cccc(C(=O)O)c12
NCI-H460 lung
  TGI: > 100 µM
NCI-H226 lung
  TGI: > 100 µM
A549 NSCLC
  TGI: > 100 µM
ACHN renal
  TGI: > 100 µM
NCI-H23 lung
  TGI: > 100 µM
EKVX NSCLC
  TGI: > 100 µM
SW-620 colon
  TGI: > 100 µM
TK-10 renal
  TGI: > 100 µM

## COc1ccc(C[C@]23CCC(=O)N2CCc2cc(OC)c(O)cc23)cc1O
NCI-H460 lung
  TGI: > 100 µM
NCI-H226 lung
  TGI: > 100 µM
A549 NSCLC
  TGI: > 100 µM
ACHN renal
  TGI: > 100 µM
NCI-H23 lung
  TGI: > 100 µM
EKVX NSCLC
  TGI: > 100 µM
SW-620 colon
  TGI: > 100 µM
TK-10 renal
  TGI: > 100 µM

## C/C(=C\C(C[C@](C)(O)C(O)CCC#C[Si](C)(C)C)S(=O)(=O)c1ccccc1)CC/C=C/CO[Si](C)(C)C(C)(C)C (some centres undefined)
NCI-H460 lung
  TGI: 27 µM
NCI-H226 lung
  TGI: 38.8 µM
A549 NSCLC
  TGI: 30.2 µM
ACHN renal
  TGI: 29.6 µM
NCI-H23 lung
  TGI: 41.9 µM
EKVX NSCLC
  TGI: 38.4 µM
SW-620 colon
  TGI: 35.3 µM
TK-10 renal
  TGI: 37.7 µM
